Measured values published in patent publication US6699989B1, “Antiviral and antimicrobial guanidine or biguanidine derivatives” (priority 2000, dated 2004).
Where two headings read alike, the source gives them in different places.

Experiments:
CEM-SS cells = assay type: cell-based; conditions: CEM-SS
HIV-1 [1] = conditions: CEM-SS, HIV1 RF
Method: This is a cytoprotection assay that uses the T-lymphoblastoid tumor cell line CEM-SS and laboratory adapted strains of HIV-1. Upon infection with HIV, the CEM-SS cells form syncytia and eventually die, producing large amounts of progeny virus over the course of 4-6 days at the standard multiplicity of infection (0.01). The antiviral assay measures the ability of a given compound to inhibit the HIV-induced cell killing. […] The activity of the compound is evaluated by measuring cell viability at 6 days post-infection and comparing the viability to that obtained in cell control (cells only), virus control (cells and virus only) and toxicity control (cells and compound only) wells.
Efficacy of the compound in cell culture is measured by increased cell viability in CEM-SS assays or reduction in virus production in PBMC assays. The data obtained yields a dose response curve which can be evaluated to determine doses which yield 25%, 50% and 95% protection from HIV-induced cell killing or virus production. […] These concentrations are reported as the TC25, TC50 and TC95 values. The ratio of toxicity to efficacy constitutes the therapeutic index TC50/IC50.
CEM-SS cells assay measures the ability of the compound to inhibit HIV induced cell killing. The cells are stained at 6 days post-infection with the tetrazolium dye XTT which is converted to a colored formazan product by the mitochondria of viable cells. Protection from cell killing afforded by the test compound is measured by comparison to both cell controls and virus controls. Cell killing in this system is directly related to the amount of virus produced by the infected cells and XTT-formazan production is proportional to the number of viable cells in each well. Toxicity of the compound to the target cells is measured in parallel.
CEM-SS cells (or other established human cell line used in these experiments) were passaged in T-150 flasks for use in the assay. On the day preceding the assay, the cells were split 1:2 to assure they would be in an exponential growth phase at time of infection. On the day of assay the cells were washed twice with tissue culture medium and resuspended in fresh tissue culture medium. Total cell and viability counting was performed using hemacytometer and trypan blue dye exclusion. Cell viability was greater than 95% for the cells to be utilized in the assay. The cells were pelleted and resuspended at 2.5×10^4 cells per ml in tissue culture medium. Cells were added to the drug-containing plates in a volume of 50 μl.
A pretitered aliquot of virus was removed from the freezer (−80° C.) and allowed to thaw slowly to room temperature in a biological safety cabinet. The virus was resuspended and diluted into tissue culture medium such that the amount of virus added to each well in a volume of 50 μl will be the amount determined to give complete cell killing at 6 days post-infection. In general the virus pools produced with the IIIB isolate of HIV required the addition of 5 μl of virus per well.
Each plate contained cell control wells (cells only), virus control wells (cells plus virus), drug toxicity control wells (cells plus drug only), drug colorimetric control wells (drug only) as well as experimental wells (drug plus cells plus virus).
After 6 days of incubation at 37° C. in a 5% CO2 incubator the test plates were analyzed by staining with the tetrazolium dye XTT. XTT-tetrazolium is metabolized by the mitochondrial enzymes of metabolically active cells to a soluble formazan product, allowing the rapid quantitative analysis of the inhibition of HIV-induced cell killing by anti-HIV test substances. On day 6 post-infection plates were removed from the incubator and observed.

HIV-1 [2] = test: PBMC assay, virus production by reverse transcriptase activity; assay type: cell-based; conditions: ROJO in PBMC
From the text: Method 2: PBMC Assay Method (Peripheral Blood Mononuclear cell)—Description
This assay addresses the issue of providing a rationale for further evaluation of the compound by providing evidence of in vitro anti-HIV activity against a low passage clinical strain of HIV-1. These fresh human peripheral blood mononuclear cell assays use fresh human cells obtained from the American Red Cross from uninfected, normal human donors. Mononuclear cells from these blood samples are isolated by centrifugation and infected with low passage clinical strains of HIV-1 which have been obtained by culture of blood cells from HIV-infected patients with uninfected PBMCs. Since the PBMCs are not killed by HIV infection, endpoint quantification is performed by measurement of virus production in each well by reverse transcriptase assay or p24 ELISA. These assays provide evidence that the test compounds will have efficacy against viruses, which will likely be encountered in patients without genetic changes, introduced by passage in cell culture.
Thus, PBMCs assay measures the amount of virus released from the infected cells into the tissue culture supernatant. The activity of the test compound is measured by its ability to reduce the level of virus production relative to the virus controls (cells+virus with no added compound). In PBMC culture we use reverse transcriptase activity in the supernatant to quantify the amount of virus production from the infected cells. Endpoint quantification is performed at 6 days post-infection.
Fresh human peripheral blood lymphocytes (PBL) are isolated from voluntary Red Cross donors, seronegative for HIV and HBV. Leukophoresed blood is diluted 1:1 with Dulbecco's phosphate buffered saline (PBS), layered over 14 mL of Ficoll-Hypaque density gradient in a 50 mL centrifuge tube. Tubes are then centrifuged for 30 minutes at 600×g. Banded PBLs are gently aspirated from the resulting interface and subsequently washed 2× with PBS by low speed centrifugation. […] After incubation, PBLs are centrifuged and reset in RPMI 1640 with 15% FBS, 2 mM L-glutamine, 100 U/mL. penicillin, 100 ug/mL streptomycin, 10 ug/mL gentamycin, and 20 U/mL recombinant human IL-2. PBLs are maintained in this medium at a concentration of 1-2×10E6/mL with bi-weekly medium changes, until use in assay protocol. For the PBL assay, PHA-P stimulated cells from at least two normal donors are pooled, set in fresh medium at 2×10E6/mL and plated in the interior wells of a 96 well round bottom microplate at 50 μL/well. Test drug dilutions are prepared at a 2× concentration in microtiter tubes and 100 μL of each concentration is placed in appropriate wells in a standard format. 50 μL of a predetermined dilution of virus stock is placed in each test well. Wells with cells and virus alone are used for virus control. Separate plates are identically set without virus for drug cytotoxicity studies using an XTT assay system.
In the standard PBL assay (MOI: 0.2), the assay was ended on day 7 following collection of cell free supernatant samples for reverse transcriptase activity assay. In the low MOI PBL assay (MOI: 0.02), supernatant samples were collected on day 6, day 11, and day 14 post-infection and analyzed for RT activity.

PBMCs = test: Toxicity to PBMC, XTT; assay type: cell-based, human

Q: `Nc1ccn([C@H]2CC[C@@H](CO)O2)c(=O)n1` [DDC, di-deoxycytosine, reference compound] was tested. Which “% CELL VIABILITY” value (CEM-SS cells; 0.00003 μM) did it give?
A: 100%

Q: What about the “CYTOTOXICITY TEST VALUES MEAN O.D.” value (CEM-SS cells; 0.00003 μM) of the same compound?
A: 1.496 O.D.

Q: And the “% CELL VIABILITY” value (CEM-SS cells; 0.0001 μM)?
A: 93%

Q: And the “CYTOTOXICITY TEST VALUES MEAN O.D.” value (CEM-SS cells; 0.0001 μM)?
A: 1.346 O.D.

Q: And the “% CELL VIABILITY” value (CEM-SS cells; 0.00032 μM)?
A: 99%

Q: And the “CYTOTOXICITY TEST VALUES MEAN O.D.” value (CEM-SS cells; 0.00032 μM)?
A: 1.428 O.D.

Q: And the “% CELL VIABILITY” value (CEM-SS cells; 0.001 μM)?
A: 100%

Q: And the “CYTOTOXICITY TEST VALUES MEAN O.D.” value (CEM-SS cells; 0.001 μM)?
A: 1.476 O.D.

Q: And the “% CELL VIABILITY” value (CEM-SS cells; 0.0032 μM)?
A: 100%

Q: What about the “CYTOTOXICITY TEST VALUES MEAN O.D.” value (CEM-SS cells; 0.0032 μM) of the same compound?
A: 1.450 O.D.

Q: What about the “% CELL VIABILITY” value (CEM-SS cells; 0.01 μM) of the same compound?
A: 100%

Q: And the “CYTOTOXICITY TEST VALUES MEAN O.D.” value (CEM-SS cells; 0.01 μM)?
A: 1.550 O.D.

Q: And the “% CELL VIABILITY” value (CEM-SS cells; 0.032 μM)?
A: 100%

Q: What about the “CYTOTOXICITY TEST VALUES MEAN O.D.” value (CEM-SS cells; 0.032 μM) of the same compound?
A: 1.658 O.D.

Q: What about the “% CELL VIABILITY” value (CEM-SS cells; 0.1 μM) of the same compound?
A: 96%

Q: What about the “CYTOTOXICITY TEST VALUES MEAN O.D.” value (CEM-SS cells; 0.1 μM) of the same compound?
A: 1.391 O.D.

Q: And the “% CELL VIABILITY” value (CEM-SS cells; 0.32 μM)?
A: 97%

Q: And the “CYTOTOXICITY TEST VALUES MEAN O.D.” value (CEM-SS cells; 0.32 μM)?
A: 1.400 O.D.

Q: And the “% CELL VIABILITY” value (CEM-SS cells; 1 μM)?
A: 100%

Q: And the “CYTOTOXICITY TEST VALUES MEAN O.D.” value (CEM-SS cells; 1 μM)?
A: 1.469 O.D.

Q: And the “% CELL VIABILITY” value (CEM-SS cells; 3.2 μM)?
A: 100%

Q: What about the “CYTOTOXICITY TEST VALUES MEAN O.D.” value (CEM-SS cells; 3.2 μM) of the same compound?
A: 1.826 O.D.

Q: And the “% CELL VIABILITY” value (CEM-SS cells; 10 μM)?
A: 100%

Q: And the “CYTOTOXICITY TEST VALUES MEAN O.D.” value (CEM-SS cells; 10 μM)?
A: 2.064 O.D.

Q: What about the “TC 25%” value (CEM-SS cells; XTT) of the same compound?
A: >10.00 CM

Q: And the “TC 50%” value (CEM-SS cells; XTT)?
A: >10.00 CM

Q: And the “TC 95%” value (CEM-SS cells; XTT)?
A: >10.00 CM

Q: And the “% RED. IN VIRAL CPE” value (HIV-1 [1]; 0.00003 μM)?
A: 1%

Q: And the “ANTIVIRAL TEST VALUES MEAN O.D.” value (HIV-1 [1]; 0.00003 μM)?
A: 0.014 O.D.

Q: What about the “% RED. IN VIRAL CPE” value (HIV-1 [1]; 0.0001 μM) of the same compound?
A: 5%

Q: And the “ANTIVIRAL TEST VALUES MEAN O.D.” value (HIV-1 [1]; 0.0001 μM)?
A: 0.062 O.D.

Q: And the “% RED. IN VIRAL CPE” value (HIV-1 [1]; 0.00032 μM)?
A: 6%

Q: And the “ANTIVIRAL TEST VALUES MEAN O.D.” value (HIV-1 [1]; 0.00032 μM)?
A: 0.080 O.D.

Q: And the “% RED. IN VIRAL CPE” value (HIV-1 [1]; 0.001 μM)?
A: 4%

Q: What about the “ANTIVIRAL TEST VALUES MEAN O.D.” value (HIV-1 [1]; 0.001 μM) of the same compound?
A: 0.057 O.D.

Q: What about the “% RED. IN VIRAL CPE” value (HIV-1 [1]; 0.0032 μM) of the same compound?
A: 8%

Q: What about the “ANTIVIRAL TEST VALUES MEAN O.D.” value (HIV-1 [1]; 0.0032 μM) of the same compound?
A: 0.109 O.D.

Q: And the “% RED. IN VIRAL CPE” value (HIV-1 [1]; 0.01 μM)?
A: 9%

Q: What about the “ANTIVIRAL TEST VALUES MEAN O.D.” value (HIV-1 [1]; 0.01 μM) of the same compound?
A: 0.119 O.D.

Q: What about the “% RED. IN VIRAL CPE” value (HIV-1 [1]; 0.032 μM) of the same compound?
A: 75%

Q: What about the “ANTIVIRAL TEST VALUES MEAN O.D.” value (HIV-1 [1]; 0.032 μM) of the same compound?
A: 1.019 O.D.

Q: And the “% RED. IN VIRAL CPE” value (HIV-1 [1]; 0.1 μM)?
A: 81%

Q: And the “ANTIVIRAL TEST VALUES MEAN O.D.” value (HIV-1 [1]; 0.1 μM)?
A: 1.099 O.D.

Q: What about the “% RED. IN VIRAL CPE” value (HIV-1 [1]; 0.32 μM) of the same compound?
A: 92%

Q: What about the “ANTIVIRAL TEST VALUES MEAN O.D.” value (HIV-1 [1]; 0.32 μM) of the same compound?
A: 1.246 O.D.

Q: What about the “% RED. IN VIRAL CPE” value (HIV-1 [1]; 1 μM) of the same compound?
A: 86%

Q: What about the “ANTIVIRAL TEST VALUES MEAN O.D.” value (HIV-1 [1]; 1 μM) of the same compound?
A: 1.166 O.D.

Q: And the “% RED. IN VIRAL CPE” value (HIV-1 [1]; 3.2 μM)?
A: 100%

Q: What about the “ANTIVIRAL TEST VALUES MEAN O.D.” value (HIV-1 [1]; 3.2 μM) of the same compound?
A: 1.754 O.D.

Q: What about the “% RED. IN VIRAL CPE” value (HIV-1 [1]; 10 μM) of the same compound?
A: 100%

Q: And the “ANTIVIRAL TEST VALUES MEAN O.D.” value (HIV-1 [1]; 10 μM)?
A: 1.687 O.D.

Q: What about the “IC 25%” value (HIV-1 [1]) of the same compound?
A: 0.01 CM

Q: And the “IC 95%” value (HIV-1 [1])?
A: 2.11 CM

Q: How did the “RT ACTIVITY % VC” value (HIV-1 [2]; 0.0013 μM) turn out when `Cc1cn([C@H]2C[C@H](N=[N+]=[N-])[C@@H](CO)O2)c(=O)[nH]c1=O` [AZT, reference compound] was run?
A: 104.6%

Q: What about the “RT ACTIVITY MEAN” value (HIV-1 [2]; 0.0013 μM) of the same compound?
A: 7531.7 cpm

Q: What about the “RT ACTIVITY % VC” value (HIV-1 [2]; 0.013 μM) of the same compound?
A: 77.3%

Q: What about the “RT ACTIVITY MEAN” value (HIV-1 [2]; 0.013 μM) of the same compound?
A: 5566.3 cpm

Q: And the “RT ACTIVITY % VC” value (HIV-1 [2]; 0.04 μM)?
A: 81.7%

Q: And the “RT ACTIVITY MEAN” value (HIV-1 [2]; 0.04 μM)?
A: 5880.0 cpm

Q: And the “RT ACTIVITY % VC” value (HIV-1 [2]; 0.13 μM)?
A: 32.3%

Q: What about the “RT ACTIVITY MEAN” value (HIV-1 [2]; 0.13 μM) of the same compound?
A: 2397.0 cpm

Q: And the “RT ACTIVITY % VC” value (HIV-1 [2]; 0.4 μM)?
A: 3.8%

Q: And the “RT ACTIVITY MEAN” value (HIV-1 [2]; 0.4 μM)?
A: 274.0 cpm

Q: What about the “RT ACTIVITY % VC” value (HIV-1 [2]; 1.3 μM) of the same compound?
A: 8.8%

Q: What about the “RT ACTIVITY MEAN” value (HIV-1 [2]; 1.3 μM) of the same compound?
A: 88.0 cpm

Q: What about the “RT ACTIVITY % VC” value (HIV-1 [2]; 4 μM) of the same compound?
A: 0.7%

Q: What about the “RT ACTIVITY MEAN” value (HIV-1 [2]; 4 μM) of the same compound?
A: 48.3 cpm

Q: And the IC50 (HIV-1 [2]; RT activity, read-out: IC50)?
A: 100 nM

Q: And the CC50 (PBMCs)?
A: > 4000 nM
